Source: patent publication US8138189B2, “Substituted benzene compounds as modulators of the glucocorticoid receptor” (Hoffman-La Roche Inc., priority 2009, dated 2012)

target: T1, full length human recombinant glucocorticoid receptor (Homo sapiens, UniProt P04150); assay: Glucocorticoid Receptor Binding Assay (fluorescence polarization competitor assay, Fluormone GS Far Red tracer); details: not given
T1 construct: partially purified full length human recombinant glucocorticoid receptor; purchased Panvera/Invitrogen PV4302
T1 sequence (P04150 1-777): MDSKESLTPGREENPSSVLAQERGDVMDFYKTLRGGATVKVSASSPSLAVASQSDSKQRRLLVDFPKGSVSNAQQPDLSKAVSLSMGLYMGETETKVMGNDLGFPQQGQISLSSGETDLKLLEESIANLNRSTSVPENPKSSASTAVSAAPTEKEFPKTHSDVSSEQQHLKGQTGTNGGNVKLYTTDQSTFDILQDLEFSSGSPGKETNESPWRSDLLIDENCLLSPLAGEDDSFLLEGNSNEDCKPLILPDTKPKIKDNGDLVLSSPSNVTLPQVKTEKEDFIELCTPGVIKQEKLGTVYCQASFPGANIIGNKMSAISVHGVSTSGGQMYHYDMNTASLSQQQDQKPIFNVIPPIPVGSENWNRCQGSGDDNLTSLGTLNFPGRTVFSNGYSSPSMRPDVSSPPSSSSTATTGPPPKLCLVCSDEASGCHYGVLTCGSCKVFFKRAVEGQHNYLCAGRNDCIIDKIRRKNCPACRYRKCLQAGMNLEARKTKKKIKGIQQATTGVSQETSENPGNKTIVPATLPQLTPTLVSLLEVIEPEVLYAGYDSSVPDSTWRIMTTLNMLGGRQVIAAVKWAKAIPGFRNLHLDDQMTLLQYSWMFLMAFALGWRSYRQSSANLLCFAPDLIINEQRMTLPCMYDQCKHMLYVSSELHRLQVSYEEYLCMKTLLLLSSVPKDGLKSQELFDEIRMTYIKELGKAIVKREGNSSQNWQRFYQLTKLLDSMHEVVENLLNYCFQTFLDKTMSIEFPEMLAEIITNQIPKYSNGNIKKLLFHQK
In short: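 Serially diluted compounds competed with the tight-binding far-red fluorescent ligand for recombinant full-length human glucocorticoid receptor plus GR-stabilizing peptide (screening buffer pH 7.4; 3 h, 22 °C, dark). Polarization (610-660 nm) gave IC50 via sigmoidal dose-response fits, and Ki was derived by Cheng-Prusoff from tracer concentration and Kd.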

Ki [nM]	Compound
24.9	C[C@H](c1ccc(-c2ccc(C(=O)O)c(F)c2)cc1Cl)[C@@](O)(c1ccc(C#N)n1C)C(F)(F)F (stereo in doubt) [Example 230, 3′-Chloro-4′-[2-(5-cyano-1-methyl-1H-pyrrol-2-yl)-3,3,3-trifluoro-2-hydroxy-1-methyl-propyl]-3-fluoro-biphenyl-4-carboxylic acid]
207	C[C@H](c1cc(Oc2ccc(C(=O)O)cn2)ccc1Cl)[C@@](O)(c1ccnc(Cl)c1)C(F)(F)F (relative stereo) [Example 133, 6-{4-Chloro-3-[2-(2-chloro-pyridin-4-yl)-3,3,3-trifluoro-2-hydroxy-1-methyl-propyl]-phenoxy}-nicotinic acid]
1.7	Cc1cc([C@@](O)([C@@H](C)c2ccc(Oc3ccc(C(=O)O)cc3C(F)(F)F)cc2Cl)C(F)(F)F)cn(C)c1=O (single isomer, unassigned) [Example 219, 4-{3-Chloro-4-[2-(1,5-dimethyl-6-oxo-1,6-dihydro-pyridin-3-yl)-3,3,3-trifluoro-2-hydroxy-1-methyl-propyl]-phenoxy}-3-trifluoromethyl-benzoic acid]
35.5	CC(c1ccc(Oc2ccccc2C(=O)O)cc1Cl)C(O)(c1ccnc(Cl)c1)C(F)(F)F (stereo not drawn) [Example 84, 2-{3-Chloro-4-[2-(2-chloro-pyridin-4-yl)-3,3,3-trifluoro-2-hydroxy-1-methyl-propyl]-phenoxy}-benzoic acid]
7.1	CC(c1ccc(Oc2ccc(F)c(C(=O)O)c2)cc1Cl)C(O)(c1ccnc(Cl)c1)C(F)(F)F (stereo not drawn) [Example 91, 5-{3-Chloro-4-[2-(2-chloro-pyridin-4-yl)-3,3,3-trifluoro-2-hydroxy-1-methyl-propyl]-phenoxy}-2-fluoro-benzoic acid]
0.2	Cc1cc([C@@](O)([C@@H](C)c2ccc(Oc3ccc(C(=O)O)cc3Cl)cc2Cl)C(F)(F)F)cn(C)c1=O (racemic) [Example 215, 3-Chloro-4-{3-chloro-4-[2-(1,5-dimethyl-6-oxo-1,6-dihydro-pyridin-3-yl)-3,3,3-trifluoro-2-hydroxy-1-methyl-propyl]-phenoxy}-benzoic acid]
10.7	COC(=O)c1ccc(OCc2ccc([C@@H](C)[C@@](O)(c3ccnc(Cl)c3)C(F)(F)F)c(Cl)c2)nn1 (stereo in doubt) [Example 122, 6-{3-Chloro-4-[2-(2-chloro-pyridin-4-yl)-3,3,3-trifluoro-2-hydroxy-1-methyl-propyl]-benzyloxy}-pyridazine-3-carboxylic acid methyl ester]
72.3	COC(=O)c1ccc(COc2ccc([C@@H](C)[C@@](O)(c3cnc(C)cn3)C(F)(F)F)c(Cl)c2)c(OC)c1 (racemic) [Example 15, 4-{3-Chloro-4-[3,3,3-trifluoro-2-hydroxy-1-methyl-2-(5-methyl-pyrazin-2-yl)-propyl]-phenoxymethyl}-3-methoxy-benzoic acid methyl ester]
34.9	Cc1cc(C(O)(C(C)c2ccc(OCc3cc(C(=O)O)ccn3)cc2Cl)C(F)(F)F)ccn1 (stereo not drawn) [Example 100, 2-{3-Chloro-4-[3,3,3-trifluoro-2-hydroxy-1-methyl-2-(2-methyl-pyridin-4-yl)-propyl]-phenoxymethyl}-isonicotinic acid]
9.4	CCOC(=O)c1cc(COc2ccc(C(C)C(O)(c3ccnc(C)c3)C(F)(F)F)c(Cl)c2)ccn1 (stereo not drawn) [Example 101, 4-{3-Chloro-4-[3,3,3-trifluoro-2-hydroxy-1-methyl-2-(2-methyl-pyridin-4-yl)-propyl]-phenoxymethyl}-pyridine-2-carboxylic acid ethyl ester]
93.5	COC(=O)c1ccc(-c2ccc([C@H](C)[C@](O)(c3ccc(OC)nc3)C(F)(F)F)c(Cl)c2)cc1F (stereo in doubt) [Example 176, 3′-Chloro-3-fluoro-4′-[3,3,3-trifluoro-2-hydroxy-2-(6-methoxy-pyridin-3-yl)-1-methyl-propyl]-biphenyl-4-carboxylic acid methyl ester]
10.3	CCOC(=O)c1cc(Oc2ccc(Cl)c([C@H](C)[C@](O)(c3ccc(=O)n(C)c3)C(F)(F)F)c2)ccc1F (stereo in doubt) [Example 193, 5-{4-Chloro-3-[3,3,3-trifluoro-2-hydroxy-1-methyl-2-(1-methyl-6-oxo-1,6-dihydro-pyridin-3-yl)-propyl]-phenoxy}-2-fluoro-benzoic acid ethyl ester]
116	CC(c1ccc(NC(=O)c2ccc(C(=O)O)cc2)cc1Cl)C(O)(c1ccnc(Cl)c1)C(F)(F)F (stereo not drawn) [Example 69, N-{3-Chloro-4-[2-(2-chloro-pyridin-4-yl)-3,3,3-trifluoro-2-hydroxy-1-methyl-propyl]-phenyl}-terephthalamic acid]
34.3	C[C@H](c1ccc(COc2ccc(C(=O)O)nn2)cc1Cl)[C@@](O)(c1ccnc(Cl)c1)C(F)(F)F (stereo in doubt) [Example 123, 6-{3-Chloro-4-[2-(2-chloro-pyridin-4-yl)-3,3,3-trifluoro-2-hydroxy-1-methyl-propyl]-benzyloxy}-pyridazine-3-carboxylic acid]
24.4	Cc1cc(C(O)(C(C)c2ccc(CCc3ccc(C(=O)O)cc3)cc2Cl)C(F)(F)F)ccn1 (stereo not drawn) [Example 67, 4-(2-{3-Chloro-4-[3,3,3-trifluoro-2-hydroxy-1-methyl-2-(2-methyl-pyridin-4-yl)-propyl]-phenyl}-ethyl)-benzoic acid]
3.3	C[C@H](c1ccc(Oc2ccc(C(=O)O)cc2)cc1Cl)[C@@](O)(c1ccc(=O)n(C)c1)C(F)(F)F (stereo in doubt) [Example 152, 4-{3-Chloro-4-[3,3,3-trifluoro-2-hydroxy-1-methyl-2-(1-methyl-6-oxo-1,6-dihydro-pyridin-3-yl)-propyl]-phenoxy}-benzoic acid]
40.9	Cc1cc(C(O)(C(C)c2ccc(OCc3ccc(C(=O)O)nc3)cc2Cl)C(F)(F)F)ccn1 (stereo not drawn) [Example 98, 5-{3-Chloro-4-[3,3,3-trifluoro-2-hydroxy-1-methyl-2-(2-methyl-pyridin-4-yl)-propyl]-phenoxymethyl}-pyridine-2-carboxylic acid]
289	C[C@H](c1ccc(C(=O)Nc2cccc(C(=O)O)c2)cc1Cl)[C@@](O)(c1ccnc(Cl)c1)C(F)(F)F (stereo in doubt) [Example 41, 3-{3-Chloro-4-[2-(2-chloro-pyridin-4-yl)-3,3,3-trifluoro-2-hydroxy-1-methyl-propyl]-benzoylamino}-benzoic acid]
20.2	Cc1cc(C(O)(C(C)c2ccc(OCc3ccnc(C(=O)O)c3)cc2Cl)C(F)(F)F)ccn1 (stereo not drawn) [Example 102, 4-{3-Chloro-4-[3,3,3-trifluoro-2-hydroxy-1-methyl-2-(2-methyl-pyridin-4-yl)-propyl]-phenoxymethyl}-pyridine-2-carboxylic acid]
4.9	Cc1cc(C(O)(C(C)c2ccc(-c3cccc(C(=O)O)c3)cc2Cl)C(F)(F)F)ccn1 (stereo not drawn) [Example 61, 3′-Chloro-4′-[3,3,3-trifluoro-2-hydroxy-1-methyl-2-(2-methyl-pyridin-4-yl)-propyl]-biphenyl-3-carboxylic acid]

same assay, conditions: Ki calculated from IC50 by Cheng-Prusoff; 3 hours at 22° C., pH 7.4

Ki [nM]	Compound
1.7	Cc1cc([C@@](O)([C@@H](C)c2ccc(Oc3ccc(C(=O)O)cc3C(F)(F)F)cc2Cl)C(F)(F)F)cn(C)c1=O (single isomer, unassigned) [Example 241, 4-{3-Chloro-4-[2-(1,5-dimethyl-6-oxo-1,6-dihydro-pyridin-3-yl)-3,3,3-trifluoro-2-hydroxy-1-methyl-propyl]-phenoxy}-3-trifluoromethyl-benzoic acid]
